Results published in patent US20230059136A1, “THE COMPOUNDS AND COMPOSITIONS FOR TREATING CONDITIONS ASSOCIATED WITH NLRP ACTIVITY” (Novartis AG, priority 2018, published 2023).

These compounds were tested on IL-1β production in PMA-differentiated THP-1 cells (assay: IL-1β production in PMA-differentiated THP-1 cells stimulated with gramicidin (hTHP-1 assay containing 2% fetal bovine serum)). Conditions: Homo sapiens, THP-1, Table B1; 2% fetal bovine serum; cells printed as numeric bound; read-out: hTHP-1 IC50 (Average IC50 of compounds in hTHP-1 assay).
Assay type: cell-based, human
Method in brief: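 THP-1 cells were differentiated with PMA 20 ng/ml for 16-18 h, then plated at 50,000 cells/well in RPMI with 2% FBS. They were preincubated 1 h with compound (100–0.0017 μM final, 0.37% DMSO), then stimulated with gramicidin 5 μM for 2 h. Supernatant IL-1β was measured by HTRF.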

| Structure (SMILES) | IC50 [µM] |
| --- | --- |
| CC(C)c1cc(C(F)F)cc(C(C)C)c1CC(=O)N=S(N)(=O)c1ccc(CN(C)C)nc1 (single isomer, unassigned) [Example 327, (S) or (R)-N-(amino(6-((dimethylamino)methyl)pyridin-3-yl)(oxo)-λ^6-sulfaneylidene)-2-(4-(difluoromethyl)-2,6-diisopropylphenyl) acetamide] | > 30 |
| CC(C)c1cc(C#N)c(F)c(C(C)C)c1CC(=O)N=S(N)(=O)c1cnc(C(C)(O)CO)s1 (single isomer, unassigned) [Example 335, (R, S) or (S, S)-N-(amino(2-(1,2-dihydroxypropan-2-yl)thiazol-5-yl)(oxo)-λ^6-sulfaneylidene)-2-(4-cyano-3-fluoro-2,6-diisopropylphenyl) acetamide] | > 30 |
| CC(C)c1cc(C#CC2CCOCC2)cc(C(C)C)c1CC(=O)N=S(N)(=O)c1cc(C(C)(C)O)n(-c2ccccc2)n1 (single isomer, unassigned) [Example 278, (S) or (R)-N-(amino(5-(2-hydroxypropan-2-yl)-1-phenyl-1H-pyrazol-3-yl)(oxo)-λ^6-sulfaneylidene)-2-(2,6-diisopropyl-4-((tetrahydro-2H-pyran-4-yl)ethynyl)phenyl)acetamide] | > 30 |

Same assay, conditions: Homo sapiens, THP-1, Table B1; 2% fetal bovine serum; class symbols; read-out: hTHP-1 IC50 (Average IC50 of compounds in hTHP-1 assay)

| Structure (SMILES) | IC50 [µM] |
| --- | --- |
| CC(C)c1cc(C(F)F)cc(C(C)C)c1CC(=O)N=S(N)(=O)c1ncc(CN(C)C)cc1F (stereo not shown) [Example 250] | 5 to 30 |
| CC(C)c1cc2c(c(C(C)C)c1CC(=O)N=[S@@](N)(=O)c1cnc(C(C)(C)O)s1)OC(F)(F)O2 [Example 231] | 0.2 to 1 |
| CC(C)c1ccc(F)c(C(C)C)c1CC(=O)N=S(N)(=O)c1ccc(C(C)(C)O)s1 (stereo not shown) [Example 125, N-(amino(5-(2-hydroxypropan-2-yl)thiophen-2-yl)(oxo)-λ^6-sulfaneylidene)-2-(3-fluoro-2,6-diisopropylphenyl)acetamide] | 0.2 to 1 |
| CC(C)c1cc(CCC2CCOCC2)cc(C(C)C)c1CC(=O)N=S(N)(=O)c1cc(C(C)(C)O)n(-c2ccccc2)n1 (single isomer, unassigned) [Example 234, (R) or (S)—N-(amino(5-(2-hydroxypropan-2-yl)-1-phenyl-1H-pyrazol-3-yl)(oxo)-λ^6-sulfaneylidene)-2-(2,6-diisopropyl-4-(2-(tetrahydro-2H-pyran-4-yl)ethyl)phenyl)acetamide] | 5 to 30 |
| CC(C)c1ncc(F)c(C(C)C)c1CC(=O)N=S(N)(=O)c1sc(C(C)(C)O)cc1F (stereo not shown) [Example 149, N-(amino(3-fluoro-5-(2-hydroxypropan-2-yl)thiophen-2-yl)(oxo)-λ^6-sulfaneylidene)-2-(5-fluoro-2,4-diisopropylpyridin-3-yl) acetamide] | 0.2 to 1 |
| CC(C)c1cc(C(F)F)cc(C(C)C)c1CC(=O)N=S(N)(=O)c1ccc(CN(C)C)cc1 (stereo not shown) [Example 257, N-(amino(4-((dimethylamino)methyl)phenyl) (oxo)-λ^6-sulfaneylidene)-2-(4-(difluoromethyl)-2,6-diisopropylphenyl)acetamide] | 1 to 5 |

Same assay, conditions: Homo sapiens, THP-1, Table B2; 2% fetal bovine serum; cells printed as numeric bound; read-out: hTHP-1 IC50 (Average IC50 of compounds in hTHP-1 assay)

| Structure (SMILES) | IC50 [µM] |
| --- | --- |
| CC(C)c1nc(C(F)(F)F)nc(C(C)C)c1CC(=O)N=S(N)(=O)c1cnc(C(C)(C)O)s1 (single isomer, unassigned) [Example 397, (R) or (S)-N-(amino(2-(2-hydroxypropan-2-yl)thiazol-5-yl)(oxo)-λ^6-sulfaneylidene)-2-(4,6-diisopropyl-2-(trifluoromethyl)pyrimidin-5-yl)acetamide] | > 30 |

Same assay, conditions: Homo sapiens, THP-1, Table B2; 2% fetal bovine serum; class symbols; read-out: hTHP-1 IC50 (Average IC50 of compounds in hTHP-1 assay)

| Structure (SMILES) | IC50 [µM] |
| --- | --- |
| CNCc1ccc(S(N)(=O)=NC(=O)Cc2c(-c3ccccc3)ccc3c2CCC3)cc1 (racemic) [Example 381, (R) and (S)—N-(amino(4-((methylamino)methyl)phenyl)(oxo)-λ^6-sulfaneylidene)-2-(5-phenyl-2,3-dihydro-1H-inden-4-yl)acetamide] | 5 to 30 |

Same assay, conditions: Table B1; 2% fetal bovine serum; class symbols; read-out: hTHP-1 IC50 (Average IC50 of compounds in hTHP-1 assay)

| Structure (SMILES) | IC50 [µM] |
| --- | --- |
| CC(C)c1cc(C#N)c(F)c(C(C)C)c1CC(=O)N=S(N)(=O)c1nc(C(C)(C)O)cs1 (single isomer, unassigned) [Example 189, (S) or (R)-N-(amino(4-(2-hydroxypropan-2-yl)thiazol-2-yl)(oxo)-λ^6-sulfaneylidene)-2-(4-cyano-3-fluoro-2,6-diisopropylphenyl) acetamide] | 1 to 5 |
| CC(C)c1cc(C#N)cc(C(C)C)c1CC(=O)N=S(N)(=O)c1ncc(C(C)(C)O)s1 (single isomer, unassigned) [Example 82, (R)- or (S)-2-(4-cyano-2,6-diisopropylphenyl)-N-(5-(2-hydroxypropan-2-yl)thiazol-2-ylsulfonimidoyl)acetamide] | 5 to 30 |
| CCc1c2c(cc(C(C)C)c1CC(=O)N=S(N)(=O)c1cc(C(C)(C)O)cs1)COC2 (single isomer, unassigned) [Example 294, (S) or (R)-N-(amino(4-(2-hydroxypropan-2-yl)thiophen-2-yl)(oxo)-λ^6-sulfaneylidene)-2-(4-ethyl-6-isopropyl-1,3-dihydroisobenzofuran-5-yl)acetamide] | 5 to 30 |
| CC(C)c1cc2c(c(C(C)C)c1CC(=O)N=S(N)(=O)c1cnc(C(C)(C)O)s1)COC2 (single isomer, unassigned) [Example 183, (R) or (S)-N-(amino(2-(2-hydroxypropan-2-yl)thiazol-5-yl)(oxo)-λ^6-sulfaneylidene)-2-(4,6-diisopropyl-1,3-dihydro-isobenzofuran-5-yl)acetamide] | 0.2 to 1 |
| CC(C)c1ccc(F)c(C(C)C)c1CC(=O)N=S(N)(=O)c1cnc(C(C)(C)O)s1 (single isomer, unassigned) [Example 161, (R) or (S)-N-(amino(2-(2-hydroxypropan-2-yl)thiazol-5-yl)(oxo)-λ^6-sulfaneylidene)-2-(3-fluoro-2,6-diisopropylphenyl) acetamide] | 0.04 to 0.2 |
| CC(C)c1ncc(F)c(C(C)C)c1CC(=O)N=S(N)(=O)c1cc(C(C)(C)O)cs1 (single isomer, unassigned) [Example 209, (S) or (R)-N-(amino(4-(2-hydroxypropan-2-yl)thiophen-2-yl)(oxo)-λ^6-sulfaneylidene)-2-(5-fluoro-2,4-diisopropylpyridin-3-yl)acetamide] | 1 to 5 |
| CC(C)c1cc(-c2ccc3c(c2)CCOC3)cc(C(C)C)c1CC(=O)N=S(N)(=O)c1sc(C(C)(C)O)nc1CO (single isomer, unassigned) [Example 271, (R) or (S)-N-(amino(4-(hydroxymethyl)-2-(2-hydroxypropan-2-yl)thiazol-5-yl)(oxo)-λ^6-sulfaneylidene)-2-(4-(isochroman-6-yl)-2,6-diisopropylphenyl) acetamide] | 0.2 to 1 |
| COCc1cc(C(C)C)c(CC(=O)N=S(N)(=O)c2ncc(C(C)(C)O)s2)c(C(C)C)c1 (single isomer, unassigned) [Example 185, (R) or (S)-N-(amino(5-(2-hydroxypropan-2-yl)thiazol-2-yl)(oxo)-λ^6-sulfaneylidene)-2-(2,6-diisopropyl-4-(methoxymethyl)phenyl)acetamide] | 0.04 to 0.2 |
| CCc1cc(OC(F)F)cc(C(C)C)c1CC(=O)N=S(N)(=O)c1sc(C(C)(C)O)cc1F (single isomer, unassigned) [Example 78, (S)- or (R)-2-(4-(difluoromethoxy)-2-ethyl-6-isopropylphenyl)-N-(3-fluoro-5-(2-hydroxypropan-2-yl)thiophen-2-ylsulfonimidoyl)acetamide] | 0.2 to 1 |
| CC(C)c1cc(-c2ccc(Cl)c(Cl)c2)cc(C(C)C)c1CC(=O)N=S(N)(=O)c1ncc(C(C)(C)O)s1 (single isomer, unassigned) [Example 169, (S) or (R)-N-(amino(5-(2-hydroxypropan-2-yl)thiazol-2-yl)(oxo)-λ^6-sulfaneylidene)-2-(3′,4′-dichloro-3,5-diisopropyl-[1,1′-biphenyl]-4-yl)acetamide] | 1 to 5 |
| CCc1cc(OC(F)F)cc(C(C)C)c1CC(=O)N=S(N)(=O)c1sc(C(C)(C)O)cc1F (single isomer, unassigned) [Example 79, (R)- or (S)-2-(4-(difluoromethoxy)-2-ethyl-6-isopropylphenyl)-N-(3-fluoro-5-(2-hydroxypropan-2-yl)thiophen-2-ylsulfonimidoyl)acetamide] | 5 to 30 |

Same assay, conditions: Table B2; 2% fetal bovine serum; class symbols; read-out: hTHP-1 IC50 (Average IC50 of compounds in hTHP-1 assay)

| Structure (SMILES) | IC50 [µM] |
| --- | --- |
| CCn1cc(F)c(S(N)(=O)=NC(=O)Cc2c(C(C)C)cc3c(c2C(C)C)OC(F)(F)O3)n1 (single isomer, unassigned) [Example 401, (S) or (R)-N-(amino(1-ethyl-4-fluoro-1H-pyrazol-3-yl)(oxo)-λ^6-sulfaneylidene)-2-(2,2-difluoro-4,6-diisopropylbenzo[d][1,3]dioxol-5-yl)acetamide] | 5 to 30 |
| CC(C)c1cc(C#N)c(F)c(C(C)C)c1CC(=O)N=S(N)(=O)c1cnc(C(O)(CO)CO)s1 (single isomer, unassigned) [Example 403, (S) or (R)-N-(amino(oxo) (2-(1,2,3-trihydroxypropan-2-yl)thiazol-5-yl)-λ^6-sulfaneylidene)-2-(4-cyano-3-fluoro-2,6-diisopropylphenyl)acetamide] | 5 to 30 |
| CC(C)c1cc2c(c(C(C)C)c1CC(=O)N=S(N)(=O)c1ccn(CCO)n1)OC(F)(F)O2 (racemic) [Example 349, (R) and (S)—N-(amino(1-(2-hydroxyethyl)-1H-pyrazol-3-yl)(oxo)-λ^6-sulfaneylidene)-2-(2,2-difluoro-4,6-diisopropylbenzo[d][1,3]dioxol-5-yl)acetamide] | 5 to 30 |
